The target in this test is HPK1 (Homo sapiens (Human), UniProt Q92918). The experiment in a line: HPK1 biochemical enzyme assay (microfluidic mobility shift assay). Conditions: 1.5 nM HPK1, ATP 1 mM final, 30 min preincubation, 60 min at RT, Caliper EZ Reader; read-out: HPK1 1000UMATP caliper IC50. In a few lines:
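Ten-point compound titrations (top 3 μM final) preincubated 30 min with HPK1 and substrate, then reaction started with 1 mM ATP and 1 μM substrate, 5 mM MgCl2. After 60 min at RT, reaction terminated and product measured by microfluidic mobility shift.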
Sequence of HPK1 (Q92918 whole entry): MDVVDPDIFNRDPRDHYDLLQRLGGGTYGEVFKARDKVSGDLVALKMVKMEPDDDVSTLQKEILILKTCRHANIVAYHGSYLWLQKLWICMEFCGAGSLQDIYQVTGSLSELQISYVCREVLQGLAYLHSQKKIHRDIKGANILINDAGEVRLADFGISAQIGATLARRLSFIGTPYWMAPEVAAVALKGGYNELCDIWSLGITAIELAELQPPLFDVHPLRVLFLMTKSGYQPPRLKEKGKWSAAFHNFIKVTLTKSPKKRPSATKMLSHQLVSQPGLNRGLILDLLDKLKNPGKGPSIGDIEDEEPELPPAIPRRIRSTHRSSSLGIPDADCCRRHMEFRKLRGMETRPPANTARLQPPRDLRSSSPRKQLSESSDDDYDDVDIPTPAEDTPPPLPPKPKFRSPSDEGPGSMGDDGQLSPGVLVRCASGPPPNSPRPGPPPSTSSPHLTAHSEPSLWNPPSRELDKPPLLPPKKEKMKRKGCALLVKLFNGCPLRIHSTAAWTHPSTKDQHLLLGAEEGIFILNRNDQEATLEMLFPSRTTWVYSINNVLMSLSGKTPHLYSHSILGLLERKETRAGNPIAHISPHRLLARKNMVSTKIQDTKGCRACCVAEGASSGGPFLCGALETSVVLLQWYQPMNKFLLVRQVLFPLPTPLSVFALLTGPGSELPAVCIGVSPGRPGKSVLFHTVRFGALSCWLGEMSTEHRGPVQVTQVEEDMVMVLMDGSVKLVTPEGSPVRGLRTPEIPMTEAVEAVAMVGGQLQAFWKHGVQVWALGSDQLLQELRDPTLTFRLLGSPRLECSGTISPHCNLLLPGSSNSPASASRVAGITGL
As to `CN[C@@H]1CCCN(c2cccc(Nc3cnc(-c4ccnc5c4ccn5C)c4c3C(=O)NC4)n2)C1` [I-239, 7-[[6-[(3R)-3-(methylamino)-1-piperidyl]-2-pyridyl]-amino]-4-(1-methylpyrrolo [2,3-b]pyridin-4-yl)-2,3-dihydropyrrolo [3,4-c]pyridin-1-one], the IC50 lay within 100 to 1000 nM.

Consider `CN1CCC(C)(c2ccc(Nc3ccc(-c4ccnc5c4ccn5C)c4c3C(=O)NC4)nc2)CC1` [I-275, 7-((5-(1,4-dimethyl-piperidin-4-yl)pyridin-2-yl)amino)-4-(1-methyl-1H-pyrrolo[2,3-b]pyridin-4-yl)isoindolin-1-one], for which the IC50 is less than 100 nM.

As for `CN(C)Cc1nc(Nc2ccc(-c3cnc4cc(F)ccn34)c3c2C(=O)NC3)ccc1N1CCC(O)CC1` [I-777, 7-((6-((dimethylamino)-methyl)-5-(4-hydroxypiperidin-1-yl)pyridin-2-yl)amino)-4-(7-fluoroimidazo [1,2-a]pyridin-3-yl)isoindolin-1-one], the concentration for half-maximal inhibition (IC50) is less than 100 nM.

On to `O=C1NCc2c(-c3c[nH]c4ccccc34)ncc(Nc3ccc(N4CCOCC4)cn3)c21` [I-3, 4-(1H-indo1-3-yl)-7-[(5-morpholino-2-pyridyl)amino]-2,3-dihydropyrrolo [3,4-c] pyridin-1-one], for which the 50% inhibitory concentration (IC50) was 100 to 1000 nM.

With `CN1CCC(C)(c2cccc(Nc3cnc(-c4ccnc5c4ccn5C)c4c3C(=O)NC4)n2)CC1` [I-575, 7-((6-(l,4-dimethyl-piperidin-4-yl)pyridin-2-yl)amino)-4-(1-methyl-1H-pyrrolo[2,3-b]pyridin-4-yl)-2,3-dihydro-1H-pyrrolo[3,4-c]pyridin-1-one], the concentration for half-maximal inhibition (IC50) fell in the range of 100 to 1000 nM.

As for `Cn1ccc2c(-c3ncc(Nc4ccc([C@H]5CCOC5)c(CN5CC[C@H](O)C5)n4)c4c3CNC4=O)ccnc21` [I-812, 7-((6-(((S)-3-hydroxypyrroli-din-1-yl)methyl)-5-((R)-THF-3-yl)pyridin-2-yl)amino)-4-(1-methyl-1H-pyrrolo[2,3-b]pyridin-4-yl)-2,3-dihydro-1H-pyrrolo[3,4-c]pyridin-1-one], the concentration for half-maximal inhibition (IC50) was less than 100 nM.

As to `O=C1NCc2c(-c3cccn4nccc34)ncc(Nc3ccc(N4CCC(O)CC4)cn3)c21` [I-370, 7-((5-(4-hydroxy-piperidin-1-yl)pyridin-2-yl)amino)-4-(pyrazolo[1,5-a]pyridin-4-yl)-2,3-dihydro-1H-pyrrolo[3,4-c]pyridin-1-one], the 50% inhibitory concentration (IC50) was in the range of 100 to 1000 nM.

In the case of `CN1CCN(c2ccc(Nc3ccc(-c4ccnc5c4ccn5Cc4ccccc4)c4c3C(=O)NC4)nc2)CC1` [I-257, 4-(1-benzyl-1H-pyrrolo[2,3-b]pyridin-4-yl)-7-((5-(4-methylpiperazin-1-yl)pyridin-2-yl)amino)isoin-dolin-1-one], the IC50 lay in the range of 100 to 1000 nM.

As to `CCNC(=O)c1ccc(Nc2ccc(-c3ccnc4c3ccn4C)c3c2C(=O)NC3)nc1` [I-109, N-ethyl-6-[[7-(1-methylpyrrolo [2,3-b]pyridin-4-yl)-3-oxo-isoindolin-4-yl]amino]pyridine-3-carboxamide], the concentration for half-maximal inhibition (IC50) is less than 100 nM.

Consider `O=C1NCc2c(-c3cnc4cc(F)ccn34)ccc(Nc3ccc(C4CCOC4)c(N4CCNCC4)n3)c21` (stereo in doubt) [I-773, (R)-4-(7-fluoroimidazo [1,2-a]pyridin-3-yl)-7-((6-(piperazin-1-yl)-5-(tetrahydrofuran-3-yl)pyridin-2-yl)amino)isoin-dolin-1-one], for which the IC50 was in the range of 100 to 1000 nM.

For the compound `Cn1ccc2c(-c3ccc(-n4ccc(N5CCC[C@@](C)(O)C5)n4)c4c3CNC4=O)ccnc21` (single isomer, unassigned) [I-305], the IC50 was greater than 1000 nM.

For the compound `Cc1nc2ccccn2c1-c1ncc(Nc2ccc(N3CCC(O)CC3)cn2)c2c1CNC2=O` [I-248, 7-[[5-(4-hydroxy-1-piperidyl)-2-pyridyl]-amino]-4-(2-methylimidazo [1,2-a]pyridin-3-yl)-2,3-dihydropyrrolo [3,4-c]pyridin-1-one], the IC50 is greater than 1000 nM.

For `CN1CCN(CC2(O)CCN(c3ccc(Nc4ccc(-c5cnc6ccccn56)c5c4C(=O)NC5)nc3)CC2)CC1` [I-403, 7-((5-(4-hydroxy-4-((4-methylpiperazin-1-yl)methyl)pip-eridin-1-yl)pyridin-2-yl)amino)-4-(imidazo[1,2-a]pyridin-3-yl)isoindolin-1-one], the concentration for half-maximal inhibition (IC50) was less than 100 nM.

On to `Cc1ccn2c(-c3ccc(Nc4ccc(N5CCO[C@H](C(C)(C)O)C5)cn4)c4c3CNC4=O)cnc2c1F` [I-463, 4-(8-fluoro-7-methyl-imidazol [1,2-a]pyridin-3-yl)-7-[[5-[(2S)-2-(1-hydroxy-1-methyl-ethyl)morpholin-4-yl]-2-pyridyl]amino]isoindolin-1-one], for which the IC50 was less than 100 nM.

As for `Cn1ccc2c(-c3ncc(Nc4ccc([C@@H]5CCOC5)c(CN)n4)c4c3CNC4=O)ccnc21` [I-836, (S)-7-((6-(aminomethyl)-5-(THF-3-yl)pyridin-2-yl)amino)-4-(1-methyl-1H-pyrrolo[2,3-b]pyridin-4-yl)-2,3-dihydro-1H-pyrrolo[3,4-c]pyridin-1-one], the IC50 was less than 100 nM.

Regarding `CC(C)N(C)Cc1nc(Nc2ccc(-c3cnc4cc(F)ccn34)c3c2C(=O)NC3)ccc1C1CCOC1` (stereo in doubt) [I-730, (R)-4-(7-fluoroimidazo [1,2-a]pyridin-3-yl)-7-((6-((isopropyl(methyl)amino)methyl)-5-(tetrahydrofuran-3-yl)pyridin-2-yl)amino)isoin-dolin-1-one], the half-maximal inhibitory concentration (IC50) was less than 100 nM.

For the compound `O=C1NCc2c(-c3cnc4cnccn34)ccc(Nc3ccc(N4C[C@H]5COC[C@H]5C4)cn3)c21` [I-318, 4-(imidazo[1,2-a]pyrazin-3-yl)-7-((5-((3aR,6aS)-tetrahydro-1H-furo[3,4-c]pyrrol-5(3H)-yl)pyridin-2-yl)amino)isoin-dolin-1-one], the half-inhibitory concentration (IC50) is less than 100 nM.

As to `CN1CCN(c2ccc(Nc3ccc(-c4cnc5c(C#N)cccn45)c4c3C(=O)NC4)nc2)CC1` [I-74, 3-[7-[[5-(4-methylpiperazin-1-yl)-2-pyridyl]amino]-1-oxo-isoindolin-4-yl]imidazo[1,2-a]pyridine-8-carbonitrile], the concentration for half-maximal inhibition (IC50) was less than 100 nM.

With `Cc1ccn2c(-c3ccc(Nc4ccc([C@@H]5CCOC5)c(CN(C)C)n4)c4c3CNC4=O)cnc2c1F` [I-704, (S)-7-((6-((dimethylamino)-methyl)-5-(tetrahydrofuran-3-yl)pyridin-2-yl)amino)-4-(8-fluoro-7-methylimidazo [1,2-a]pyridin-3-yl)isoindolin-1-one], the IC50 was less than 100 nM.

On to `O=C1NCc2c(-c3cnc4cc(F)ccn34)ccc(Nc3ccc([C@@H]4CCOC4)c(CNCC(F)(F)F)n3)c21` [I-751, (S)-4-(7-fluoroimidazo [1,2-a]pyridin-3-yl)-7-((5-(tetrahydrofuran-3-yl)-6-(((2,2,2-trifluoroethyl)amino)methyl)pyridin-2-yl)amino)isoin-dolin-1-one], for which the concentration for half-maximal inhibition (IC50) was less than 100 nM.

In the case of `O=C1NCc2c(-c3ccc4cnccn34)ccc(Nc3ccc(N4CCC(O)CC4)cn3)c21` [I-369, 7-((5-(4-hydroxypiper-idin-1-yl)pyridin-2-yl)amino)-4-(pyrrolo[1,2-a]pyrazin-6-yl)isoindolin-1-one], the IC50 is less than 100 nM.

For the compound `Cc1ccc2c(-c3ccc(Nc4ccc(N5CCN(C)CC5)cn4)c4c3CNC4=O)cnn2c1` [I-65, 7-[[5-(4-methylpiperazin-1-yl)-2-pyridyl]amino]-4-(6-methylpyrazolo [1,5-a]pyridin-3-yl)isoindolin-1-one], the 50% inhibitory concentration (IC50) is less than 100 nM.

As to `CC(C)(O)[C@H]1CN(c2ccc(Nc3cnc(-c4cnc5ccccn45)c4c3C(=O)NC4)nc2)CCO1` [I-470, 7-[[5-[(2R)-2-(1-hydroxy-1-methyl-ethyl)morpholin-4-yl]-2-pyridyl]amino]-4-imidazo[1,2-a]pyridin-3-yl-2,3-dihydropyrrolo [3,4-c]pyridin-1-one], the IC50 was greater than 1000 nM.

With `O=C1NCc2c(-c3cnc4ccccn34)ccc(Nc3ccc(N4CCNCC4)cn3)c21` [I-60, 4-imidazo[1,2-a]pyridin-3-yl-7-[(5-piperazin-1-yl-2-pyridyl)amino] isoindolin-1-one], the 50% inhibitory concentration (IC50) is less than 100 nM.

As to `Cc1ccn2c(-c3ncc(Nc4ccc(N5CCNCC5)cn4)c4c3CNC4=O)cnc2c1` [I-124, 4-(7-methylimidazo [1,2-a]pyridin-3-yl)-7-[(5-piperazin-1-yl-2-pyridyl)amino]-2,3-dihydropyrrolo [3,4-c]pyridin-1-one], the half-maximal inhibitory concentration (IC50) was less than 100 nM.

As for `CC(C)NCc1nc(Nc2ccc(-c3cnc4cc(F)ccn34)c3c2C(=O)NC3)ccc1[C@H]1CCOC1` [I-559, (R)-4-(7-fluoroimidazo [1,2-a]pyridin-3-yl)-7-((6-((isopropylamino)-methyl)-5-(tetrahydrofuran-3-yl)pyridin-2-yl)amino)isoin-dolin-1-one], the IC50 was less than 100 nM.

On to `CN(C)C(C)(C)C1CN(c2ccc(Nc3ccc(-c4cnc5cc(F)ccn45)c4c3C(=O)NC4)nc2)CCO1` (stereo in doubt) [I-591, (S)-7-((5-(2-(2-(dimethylami-no)propan-2-yl)morpho-lino)pyridin-2-yl)amino)-4-(7-fluoroimidazo [1,2-a]pyridin-3-yl)isoindolin-l-one], for which the IC50 was less than 100 nM.

Consider `COc1ccc2ncc(-c3ccc(Nc4ccc(N5CCC(O)CC5)cn4)c4c3CNC4=O)n2c1` [I-142, 7-[[5-(4-hydroxy-1-piperidyl)-2-pyridyl]amino]-4-(6-methoxy-imidazo[1,2-a]pyridin-3-yl)-isoindolin-1-one], for which the concentration for half-maximal inhibition (IC50) was less than 100 nM.

For `CN(C)C(C)(C)C1CN(c2ccc(Nc3ccc(-c4cnc5cc(F)ccn45)c4c3C(=O)NC4)nc2)CCO1` (stereo in doubt) [I-590, (R)-7-((5-(2-(2-(dimethylami-no)propan-2-yl)morpho-lino)pyridin-2-yl)amino)-4-(7-fluoroimidazo [1,2-a]pyridin-3-yl)isoindolin-1-one], the half-maximal inhibitory concentration (IC50) was less than 100 nM.

`CNC1CCN(c2ccc(Nc3ccc(-c4ccnc5[nH]ccc45)c4c3C(=O)NC4)nc2)CC1` [I-57, 7-[[5-[4-(methylamino)-1-piperidyl]-2-pyridyl]amino]-4-(1H-pyrrolo[2,3-b]pyridin-4-yl)isoindolin-1-one]: the IC50 was less than 100 nM.

For orientation: IC50 means the concentration at which inhibition is half-maximal.

The values above are taken from patent publication US11021481B2, “Substituted isoindolin-1-ones and 2,3-dihydro-1h-pyrrolo[3,4-c]pyridin-1-ones as HPK1 antagonists” (Nimbus Saturn, Inc., priority 2019, dated 2021).
